Values of other authors as cited in patent US20240285640A1, “COMBINATION THERAPY FOR TREATING PIK3CA-MUTATED CANCER” (ADLAI NORTYE BIOPHARMA CO., LTD., priority 2020, published 2024).

Experiments:
advanced solid tumors = settings: phase I FIH, a variety of advanced solid tumors
colorectal cancer = settings: combined with radiotherapy and chemotherapy; Wyrwicz et al., ESMO2019
[1] = test system: immunosuppressive cells in the tumor microenvironment; settings: preclinical studies; by inhibiting the PGE2/EP-4 signaling pathway
[2] = test system: breast cancer caused by PI3K/PIK3CA mutations; settings: patients; Campone M et al. 2018

Compound	clinical effect as single drug (advanced solid tumors)	clinical efficacy (colorectal cancer)	reduction of immunosuppressive cells in the tumor microenvironment [1]	clinical efficacy [2]
C[C@H](NC(=O)c1c(C(F)F)nn(C)c1Oc1cccc(C(F)(F)F)c1)c1ccc(C(=O)O)cc1 [AN0025]	certain single-drug effect	strong clinical efficacy	effectively reduce	
Nc1cc(C(F)(F)F)c(-c2cc(N3CCOCC3)nc(N3CCOCC3)n2)cn1 [AN2025, Buparlisib]				effective
